From ChEMBL document CHEMBL1128801, “Synthesis and biological evaluation of 14-alkoxymorphinans.12.1 A phenethyl analogue of the -selective opioid receptor antagonist cyprodime” (Bioorg Med Chem Lett, 1995) come the findings set out here.

Test [1] is filed under the species Mus musculus. Put plainly: Effective concentration required for in Vitro evaluation of agonist activity on mouse vas deferens preparation. It counts as functional.
For test [2], the species on record is Mus musculus. Put plainly: In Vitro evaluation of antagonist activity induced by naloxone on mouse vas deferens preparation. Type of test: functional.
For test [3], the species on record is Cavia porcellus. Put plainly: Effective concentration required for in vitro agonist potency in guinea-pig ileum myenteric plexus preparation (GPI). It counts as functional.
The species entered for test [4] is Mus musculus. Put plainly: In vitro evaluation of antagonist activity induced by naloxone on mouse vas deferens preparation. Type of test: functional.
The species entered for test [5] is Mus musculus. Put plainly: Effective concentration required for in vitro evaluation of agonist activity on mouse vas deferens preparation. Type of test: functional.
The species entered for test [6] is Cavia porcellus. Briefly: In vitro evaluation of antagonistic activity induced by naloxone in guinea-pig ileum myenteric plexus preparation (GPI). It counts as functional.
The target of test [7] is Kappa-type opioid receptor (Cavia porcellus, UniProt P41144). Briefly: Binding affinity by its ability to displace [3H]-U-69,593 from kappa receptor in homogenates of guinea pig brain. It counts as tissue-based.
The target of test [8] is Mu-type opioid receptor (Cavia porcellus, UniProt P97266). Put plainly: Binding affinity by its ability to displace [3H]DAMGO from mu receptor in homogenates of guinea pig brain. It counts as tissue-based.
The species entered for test [9] is Cavia porcellus. Briefly: Effective concentration of compound required for in vitro agonist potency in guinea-pig ileum myenteric plexus preparation (GPI). It counts as functional.
Test [10] has as its system Rattus norvegicus. Put plainly: Effective dose required for in vivo antinociceptive effect in rat when administered subcutaneously. It counts as functional. The note with it: sc.
The species entered for test [11] is Mus musculus. Briefly: Effective concentration of compound required for in vitro agonist activity on mouse vas deferens preparation. It counts as functional.

Sequence of Kappa-type opioid receptor (P41144 whole entry): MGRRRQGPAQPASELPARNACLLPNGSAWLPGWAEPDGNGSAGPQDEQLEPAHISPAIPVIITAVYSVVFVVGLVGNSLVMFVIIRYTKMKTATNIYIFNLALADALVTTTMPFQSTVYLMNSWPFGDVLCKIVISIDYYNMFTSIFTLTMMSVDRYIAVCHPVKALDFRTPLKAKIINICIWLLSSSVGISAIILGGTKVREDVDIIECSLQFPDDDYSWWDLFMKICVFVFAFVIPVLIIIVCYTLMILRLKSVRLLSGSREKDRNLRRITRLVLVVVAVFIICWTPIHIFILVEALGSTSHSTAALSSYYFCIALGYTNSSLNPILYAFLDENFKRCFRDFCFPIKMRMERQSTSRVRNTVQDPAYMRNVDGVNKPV
Sequence of Mu-type opioid receptor (P97266 whole entry): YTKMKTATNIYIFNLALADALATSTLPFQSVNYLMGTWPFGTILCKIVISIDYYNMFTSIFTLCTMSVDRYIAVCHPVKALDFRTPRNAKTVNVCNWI

A word on the EC50: it is the concentration that produces a half-maximal response. Low values mean higher potency in that assay, high ones lower potency in that assay. `CC1(C)SSC(C)(C)[C@@H](NC(=O)[C@@H](N)Cc2ccc(O)cc2)C(=O)NCC(=O)N[C@@H](Cc2ccccc2)C(=O)N[C@H]1C(=O)O` gave a concentration for a half-maximal effect (EC50) in [1] of 2.8 nM. The same compound came in with a Ke in [2] of 20.4 nM.
As to `C[C@@H](NC(=O)[C@@H](N)Cc1ccc(O)cc1)C(=O)NCC(=O)N(C)[C@@H](Cc1ccccc1)C(=O)NCCO` [DAMGO], the concentration for a half-maximal effect (EC50) in [3] came out at 11.8 nM; in [5], 24.7 nM. Moreover, the Ke worked out at 1.9 nM in test [4] and 1.6 nM in test [6].
Broadly, the Ki is the equilibrium dissociation constant of an inhibitor or competing ligand from its target. `COc1cccc2c1[C@]13CCN(CC4CC4)[C@H](C2)[C@]1(OC)CCC(=O)C3` [CYPRODIME BROMIDE] registered a Ki in test [7] of 61.1 nM.
What is called ED50 is the midpoint of the dose-response relation. A lower ED50 goes with greater potency. With `Br.COc1cccc2c1[C@]13CCN(CCc4ccccc4)C(C2)[C@]1(OC)CCC(=O)C3`, the inhibitory constant (Ki) was 0.9 nM in test [8] and 690 nM in test [7]. In addition, the EC50 in [9] turned out to be 17.4 nM; in [11] it was 11.8 nM. The Ke is listed as 1.67 nM in test [4] and 0.54 nM in test [6]. In test [10], this compound came in with a median effective dose (ED50) of 0.037 mg/kg.
Turning to `COc1cccc2c1[C@]13CCN(C)[C@H](C2)[C@]1(OC)CCC(=O)C3`, the Ki was found to be 0.7 nM in test [8] and 1.5 nM in test [7]. For the same compound, in [10], it took a dose of 0.021 mg/kg to reach the 50% effect level (ED50).
On to `CN1CC[C@]23c4c5ccc(O)c4O[C@H]2[C@@H](O)C=C[C@H]3[C@H]1C5.Cl` [MORPHINE HYDROCHLORIDE], for which the ED50 in test [10] amounted to 1.8 mg/kg.
